According to patent US7052871B2, “Methods of improving transformation efficiency of plants with auxin responsive promoter sequences” (Pioneer Hi-Bred International, Inc., priority 2000, dated 2006):

What was measured:
[1] = tested on: ZmAxig1 mRNA in BMS (Black Mexican Sweet) maize cells; assay: Northern blot of mRNA from BMS cells cultured on auxin-containing medium, probed with SEQ ID No. 12; type: cell-based, Zea mays; details: BMS cultured cells (FIG. 4)
ZmAxig1 mRNA = assay: Northern blot of mRNA from treated plants probed with SEQ ID No. 12 (CJLP181); type: in vivo, Zea mays; details: for hybridization of SEQ ID No. 12 probe with mRNA from anther or entire aerial portion of treated plants: anther or entire aerial portion of treated plants (FIG. 4)
[2] = tested on: male fertility of pZmAxig1:Ms45 plants; assay: Fertility restoration in ms45 male sterile maize plants transformed with V2 (pZmAxig1:Ms45); type: in vivo, Zea mays
Excerpt: A second DNA plasmid was constructed by combining the ZmAxig1 promoter (1306 bases 5′ of start codon; SEQ ID NO: 16) with the Ms45 coding sequence and 35S:PAT in a T-DNA vector. This plasmid was cointegrated with Japan Tobacco plasmid pSB1 to create a second suitable vector, V2.
Maize GS3Ms45EX4 embryos, segregating for homozygous ms45 (male sterile) and Ms45/ms45 (male fertile) genotypes, were transformed with the first and second vectors using Agrobacterium.
Transformed cell lines homozygous for the ms45 male sterile genotype were screened by quantitative PCR screening and advanced for regeneration into plants. Positive lines were transferred to 289B medium, an MS-based medium containing bialaphos and carbenicillin, with lower sucrose and hormone levels, to initiate plant regeneration. Following somatic embryo maturation (2–3 weeks), well-developed somatic embryos were transferred to medium for germination and transferred to the lighted culture room. Approximately 7 days later, developing plantlets were transferred to medium in tubes for 7 days until plantlets were well established. Plants were then transferred to inserts in flats (equivalent to 2.5″ pot) containing potting soil and grown for one week in a growth chamber, subsequently grown an additional 1–2 weeks in the greenhouse, then transferred to classic 600 pots (1.6 gallon) and grown to maturity.
From each of 20 independent callus lines transformed with V2, six regenerated plants were grown in the greenhouse. […] The plants were scored for fertility after tassels emerged.

[3] = tested on: cDNA fragments (w0h051.7, ZmAxig1); details: anthers; two daily soil drenches of 12 μl dicamba formulation in 450 ml water
Excerpt: Anthers containing microsporocytes at meiosis […] through early uninucleate stages of development were harvested on the third day and frozen. Anthers containing microsporocytes at prophase through early uninucleate stages of development were harvested from non-treated plants. Frozen tissues were ground and total RNA extracted with Tripure™ isolation reagent (Boehringer Mannheim, Indianapolis, Ind.) according to the manufacturer's instructions.
RNA isolated from anthers of three dicamba-treated plants and three non-treated plants was sent to laboratories of CuraGen Corporation (New Haven, Conn.) for quantitative expression profiling. […] (FIG. 3)

[4] = tested on: ZmAxig1 expression in anthers
Method: Progeny of transgenic maize plants, hemizygous for the maize anther-preferred promoter 5126 (U.S. Pat. Nos. 5,689,049 and 5,689,051) driving DAM methylase linked with 35S:PAT (p5126:DAM/35S:PAT), were grown in the greenhouse. Expression of p5126:DAM is known to ablate the tapetum prior to the quartet stage of microspore development, which results in male sterile plants.
Plants segregating for male fertile/glufosinate-ammonium susceptible phenotype (wild-type) or for male sterile/glufosinate-ammonium resistant phenotype (p5126:DAM/35S:PAT), were treated with a dicamba soil drench as described above, or were not treated. Quartet/early-uninucleate stage anthers were harvested from these plants and mRNA was isolated with the QuickPrep® Micro mRNA purification kit (Amersham Pharmacia, Piscataway, N.J.) according to the manufacturer's instructions.
(§1) Quartet/early-uninucleate stage anthers from dicamba-treated or non-treated plants were harvested and embedded for in situ hybridization or frozen for mRNA isolation as described above.

[5] = tested on: ZmAxig1 transcripts in the tapetum; details: treated plants (FIG. 7)
Excerpt: as §1

O=C(O)COc1ccc(Cl)cc1Cl [2,4-D, 2,4-dichlorophenoxyacetic acid]
hybridization of SEQ ID No. 12 probe with mRNA from BMS maize cultured on medium containing the auxin [1]: hybridized

NC(=O)NS(=O)(=O)c1ccccc1Cl [CBSU]
hybridization of SEQ ID No. 12 probe with mRNA from anther or entire aerial portion of treated plants (ZmAxig1 mRNA): did not hybridize

CC1=C(C(=O)Nc2ccccc2)SCCO1 [Carboxin]
hybridization of SEQ ID No. 12 probe with mRNA from anther or entire aerial portion of treated plants (ZmAxig1 mRNA): did not hybridize

C=CCN(CC=C)C(=O)C(Cl)Cl [Dichlormid]
hybridization of SEQ ID No. 12 probe with mRNA from anther or entire aerial portion of treated plants (ZmAxig1 mRNA): did not hybridize

CN(C)C(=O)Nc1ccc(Cl)c(Cl)c1 [Diuron]
hybridization of SEQ ID No. 12 probe with mRNA from anther or entire aerial portion of treated plants (ZmAxig1 mRNA): did not hybridize

COCC(=O)N(c1c(C)cccc1C)C(C)C(=O)OC (stereo not shown) [Metalaxyl]
hybridization of SEQ ID No. 12 probe with mRNA from anther or entire aerial portion of treated plants (ZmAxig1 mRNA): did not hybridize

O=C(O)c1nc(Cl)ccc1Cl [clopyralid]
plants showing partial to complete male fertile phenotypes, foliar application ([2]; 10 μl clopyralid formulation, foliar application with 1 ml water, homozygous ms45 V2 progeny): Two of five
plants showing partial to complete male fertile phenotypes, soil drench application ([2]; 10 μl clopyralid formulation, soil drench with 200 ml water, homozygous ms45 V2 progeny): three of six

COc1c(Cl)ccc(Cl)c1C(=O)O [dicamba]
plants with fertile phenotype ([2]; of 81 treated V2 plants): 33 plants
plants with shedder (partially fertile) phenotype ([2]; of 81 treated V2 plants): 36 plants
plants that produced anthers with pollen ([2]; of 81 treated V2 plants, daily soil drench 3 μl dicamba formulation, one to three days): 69 plants
viability of pollen from treated plants ([2]; pollen from 9 treated plants used to pollinate non-transformed ears, kernels germinated): viable
expression level of induced cDNA fragments relative to the control [3]: greater than 2.5 fold
ZmAxig1 expression in anthers of treated plants (Northern blot) ([4]; quartet/early-uninucleate stage anthers): induced
induction of ZmAxig1 expression in anthers from wild-type male fertile plants ([4]; soil drench, quartet/early-uninucleate stage anthers (FIG. 6)): induced expression of ZmAxig1
induction of ZmAxig1 expression in anthers from male sterile p5126:DAM/35S:PAT plants ([4]; soil drench, tapetum-ablated male sterile plants (FIG. 6)): not in anthers from male sterile plants
hybridization of SEQ ID No. 12 probe with mRNA from anthers of treated plants (ZmAxig1 mRNA; anthers, northern blot (FIG. 3)): hybridized very strongly
hybridization of SEQ ID No. 12 probe with mRNA from tassel or whorl leaf of treated plants (ZmAxig1 mRNA; tassel or whorl leaf, northern blot (FIG. 3)): to a lesser degree
in situ hybridization of ZmAxig1 antisense RNA probe to RNA in tapetum of anthers and microspores [5]: strong in situ hybridization
